# Experimental data reported in patent publication US8372866B2, “2-aryl and 2-heteroaryl 4H-1-benzopyran-4-one-6-amidino derivatives, new pharmacological agents for the treatment of arthritis, cancer and related pain” (Rottapharm S.p.A., priority 2008, dated 2013).
# Structures can show the parent of a compound that is named as a salt.
row,Compound,melting point [°C]
1,"CC(=N)Nc1ccc2oc(-c3ccc(-n4ccnc4)cc3)c(O)c(=O)c2c1 (as salt: hydrochloride) [Example 5, 2-[(4-imidazol-1-yl)-phenyl]-3-hydroxy-6-[(1-iminoethyl)amino]-4H-1-benzopyran-4-one hydrochloride]",311.7 to 312.1
2,"CC(=N)Nc1ccc2oc(-c3cccc(-n4ccnc4)c3)c(O)c(=O)c2c1 (as salt: hydrochloride) [Example 8, 2-[(3-(imidazol-1-yl)-phenyl]-3-hydroxy-6-[(1-iminoethyl)amino]-4H-1-benzopyran-4-one dihydrochloride]",281 to 281.5
3,"N=C(CC1CC1)Nc1ccc2oc(-c3ccc(O)cc3)c(O)c(=O)c2c1 (as salt: hydrochloride) [Example 11, 2-(4-hydroxyphenyl-3-hydroxy-6-[(1-iminoethyl-2-cyclopropyl)amino]-4H-1-benzopyran-4-one hydrochloride]",281 to 281.5
4,"CC(=N)Nc1ccc2oc(-c3ccc4c(c3)CCO4)c(O)c(=O)c2c1 (as salt: hydrochloride) [Example 15, 2-(dihydrobenzofuran-5-yl)-3-hydroxy-6-[(1-iminoethyl)amino]-4H-1-benzopyran-4-one hydrochloride]",291 to 292
5,"CC(=N)Nc1ccc2oc(-c3ccc4c(c3)OCO4)c(O)c(=O)c2c1 (as salt: hydrochloride) [Example 16, 2-(benzo[1,3]dioxol-5-yl)-3-hydroxy-6-[(1-iminoethyl)amino]-4H-1-benzopyran-4-one hydrochloride]",262.3 to 262.9
6,"COCCC(=N)Nc1ccc2oc(-c3ccc4c(c3)OCO4)c(O)c(=O)c2c1 (as salt: hydrochloride) [Example 19, 2-(benzo[1,3]dioxol-5-yl)-3-hydroxy-6-[(1-iminopropyl-3-methoxy)amino]-4H-1-benzopyran-4-one hydrochloride]",188.5 to 190
7,"CC(=N)Nc1ccc2oc(-c3ccc(O)nc3)c(O)c(=O)c2c1 (as salt: hydrochloride) [Example 21, 2-(6-hydroxypyridin-3-yl)-3-hydroxy-6-[(1-iminoethyl)amino]-4H-1-benzopyran-4-one hydrochloride]",284.5 to 286
